Measurements published in ChEMBL document CHEMBL4433263, “Tapping the therapeutic potential of protein tyrosine phosphatase 4A with small molecule inhibitors” (Bioorg Med Chem Lett, 2019).

Legend:
[1] = target: T1, Tyrosine-protein phosphatase non-receptor type 1 (Homo sapiens, UniProt P18031); test: Inhibition of human PTP1B assessed as reduction in hydrolysis using DIFMUP as substrate incubated for 30 mins in presence of DTT by Fluorescence based method
T1 sequence (P18031 whole entry): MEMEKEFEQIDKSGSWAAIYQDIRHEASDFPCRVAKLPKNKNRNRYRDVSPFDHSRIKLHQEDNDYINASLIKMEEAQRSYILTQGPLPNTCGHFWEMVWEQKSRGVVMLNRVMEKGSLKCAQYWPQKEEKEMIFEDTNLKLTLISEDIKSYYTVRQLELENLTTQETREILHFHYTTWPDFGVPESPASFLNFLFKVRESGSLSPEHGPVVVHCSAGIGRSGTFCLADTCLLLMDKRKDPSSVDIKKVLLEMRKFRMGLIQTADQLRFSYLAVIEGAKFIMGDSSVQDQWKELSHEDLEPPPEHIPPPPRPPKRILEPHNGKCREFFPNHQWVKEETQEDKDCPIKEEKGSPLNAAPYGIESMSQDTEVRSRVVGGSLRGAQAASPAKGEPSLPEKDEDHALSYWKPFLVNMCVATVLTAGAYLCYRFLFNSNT

[2] = target: T2, Protein tyrosine phosphatase type IVA 1 (Homo sapiens, UniProt Q93096); test: Inhibition of PTP4A1 (unknown origin)
T2 sequence (Q93096 whole entry): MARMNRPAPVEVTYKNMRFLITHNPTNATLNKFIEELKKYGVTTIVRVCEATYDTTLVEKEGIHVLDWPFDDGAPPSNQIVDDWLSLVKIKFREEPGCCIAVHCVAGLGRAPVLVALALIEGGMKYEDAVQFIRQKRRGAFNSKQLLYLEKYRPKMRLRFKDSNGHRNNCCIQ

[3] = target: T3, Protein tyrosine phosphatase type IVA 2 (Homo sapiens, UniProt Q12974); test: Inhibition of PTP4A2 (unknown origin)
T3 sequence (Q12974 whole entry): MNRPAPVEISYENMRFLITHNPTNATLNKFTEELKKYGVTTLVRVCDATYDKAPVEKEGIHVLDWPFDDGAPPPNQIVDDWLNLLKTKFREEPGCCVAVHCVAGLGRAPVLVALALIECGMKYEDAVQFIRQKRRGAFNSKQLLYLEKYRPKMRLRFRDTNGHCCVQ

[4] = target: Protein tyrosine phosphatase type IVA 3 (Homo sapiens, UniProt O75365); test: Inhibition of PTP4A3 (unknown origin)
Sequence of Protein tyrosine phosphatase type IVA 3 (O75365 whole entry): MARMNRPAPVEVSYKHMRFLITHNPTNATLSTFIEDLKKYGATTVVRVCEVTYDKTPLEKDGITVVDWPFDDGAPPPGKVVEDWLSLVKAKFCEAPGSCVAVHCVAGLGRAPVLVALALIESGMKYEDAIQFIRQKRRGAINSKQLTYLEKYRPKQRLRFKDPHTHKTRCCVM

Compound | IC50 [1] | IC50 [2] | IC50 [3] | IC50 [4]
N=C1C(=O)NC(=O)c2cc(-c3ccccc3)sc21 | > 80 µM | – | – | –
Cc1cc2c(cc1C)CN(c1cccc(C(=O)N/N=C/c3ccc(C(=O)O)cc3)c1)C2 | – | > 20 µM | – | –
N=C(N)c1ccc(OCCCCCOc2ccc(C(=N)N)cc2)cc1 [PENTAMIDINE] | – | 0.3 µM | 0.3 µM | 0.3 µM
